Experimental data taken from patent publication US5032109A, “Electrolytic transdermal delivery of polypeptides” (Drug Delivery Systems Inc., priority 1989, dated 1991).
Where a name gives a salt, the structure may show the parent alone.

Tests used:
[1] = from Herkovits et al. 1978, cited from earlier work; for Setschenow constant, for --CH2--: average hydrophobic group; for Setschenow constant, for peptide: average peptide group; for Setschenow constant, sum: peptide plus hydrophobic; for -F.° (free energy of transfer): transfer from water to water plus cosolvent
[2] = Blood pressure of hypertensive volunteers wearing atriopeptin patches (Model Example 3); assay type: in vivo, human; conditions: hypertensive female volunteers, powered patches, 0.01M atriopeptin in 0.1M sodium perchlorate, about 10 ua/cm^2
Description: Ten adult female volunteers, diagnosed as having hypertension, are chosen for this experiment. All are fitted with the large-size electrolytic transdermal patch, as in Example 2. […] Five control patches have no batteries. […] The blood pressure of the ten subjects is measured four times a day.

[3] = design: species or system human; conditions: in vivo
From the text: Ten adult female volunteers, diagnosed as having hypertension, are chosen for this experiment. All are fitted with the large-size electrolytic transdermal patch, as in Example 2. […] Five control patches have no batteries.

[4] = Total urine output of beagle dogs wearing lypressin electrolytic patches (Model Example 1); assay type: in vivo; conditions: four beagle dogs, powered patch, 10 ua/cm^2, ten days, Diapid 0.185 mg lypressin/ml
Description: Eight beagle dogs are employed. All of them are clipped on the back, washed with castille soap, and fitted with the small animal electrolytic patches of Example 1, four of them without batteries.
The drug reservoir of each patch contains 6 ml. Diapid 50 USP, 0.185 mg lypressin/ml. The return reservoir contains 0.9 percent saline. A current regulator is set to deliver 10 ua/cm^2.
Over a period of ten days the total urine output of each dog is measured by standard techniques.

[5] = Electrical conductivity of urine in diabetes insipidus volunteers wearing Pitressin patches (Model Example 2); assay type: in vivo, human; conditions: powered large patch, 300 units Pitressin, five days
Description: Six adult male volunteers each having been diagnosed as having diabetes insipidus are tested. Three are fitted with the large-size human patch, as in Example 2, and the three controls are fitted with drug-loaded, identical patches without batteries.
The drug reservoirs of the large electrolytic patches contain 15 ml (300 units) of Pitressin (Parke-aDavis Co., Morris Plains, N.J.). The return reservoir contains 0.9 percent saline buffered to pH 7.2 with ammonium dihydrogen phosphate.
Urine samples are taken from each subject three times per day for five days.

| drug delivered per hour [3] | Compound | Setschenow constant, for --CH2-- [1] | Setschenow constant, for peptide [1] | Setschenow constant, sum [1] | -F.° (free energy of transfer) [1] [cal/mo] | average blood pressure versus controls (patches without batteries) [2] | average total urine volume versus control dogs (patches without batteries) [4] | electrical conductivity of the urine versus control subjects (patches without batteries) [5] |
| --- | --- | --- | --- | --- | --- | --- | --- | --- |
| – | CCO [Ethanol] | -0.014 | +0.037 | 0.023 | 31 | – | – | – |
| – | CCC(=O)[O-].[Na+] [Sodium proprionate] | – | – | -0.017 | -23 | – | – | – |
| about 200 nanograms of drug per hour | atriopeptin | – | – | – | – | significantly lower | – | – |
| – | [Cl-].[Na+] [Sodium chloride] | 0.033 | -0.037 | -0.004 | -5 | – | – | – |
| – | NC(N)=O [Urea] | -0.01 | -0.018 | -0.028 | -38 | – | – | – |
| – | [I-].[Na+] [Sodium iodide] | 0.01 | -0.087 | -0.077 | -105 | – | – | – |
| – | CCCC(=O)[O-].[Na+] [Sodium butyrate] | – | – | -0.038 | -51 | – | – | – |
| – | C1COCCO1 [Dioxane] | -0.013 | +0.029 | 0.016 | 22 | – | – | – |
| – | CCCNC(N)=O [Propylurea] | – | – | -0.047 | -64 | – | – | – |
| – | [Br-].[Na+] [Sodium bromide] | 0.025 | -0.037 | -0.012 | -16 | – | – | – |
| – | N=C(N)N [Guanidine hydrochloride, guanidine hydrochloride] | -0.027 | -0.061 | -0.088 | -120 | – | – | – |
| – | [O-][Cl+3]([O-])([O-])O [Sodium perchlorate] | 0.021 | -0.097 | -0.076 | -104 | – | – | – |
| – | NCCCC[C@H](NC(=O)[C@@H]1CCCN1C(=O)[C@@H]1CSSC[C@H](N)C(=O)N[C@@H](Cc2ccc(O)cc2)C(=O)N[C@@H](Cc2ccccc2)C(=O)N[C@@H](CCC(N)=O)C(=O)N[C@@H](CC(N)=O)C(=O)N1)C(=O)NCC(N)=O [lypressin] | – | – | – | – | – | significantly lower | – |
| – | [I-].[K+] [Potassium iodide] | 0.01 | -0.083 | -0.073 | -100 | – | – | – |
| – | NC(=O)CC[C@@H]1NC(=O)[C@H](Cc2ccccc2)NC(=O)[C@H](Cc2ccc(O)cc2)NC(=O)[C@@H](N)CSSC[C@@H](C(=O)N2CCC[C@H]2C(=O)N[C@@H](CCCN=C(N)N)C(=O)NCC(N)=O)NC(=O)[C@H](CC(N)=O)NC1=O [Pitressin, vasopressin] | – | – | – | – | – | – | significantly higher |
